Test results reported in the NIST ThermoML archive (doi:10.1016/j.jct.2012.03.003).

Assay: xn = mol fraction of the nth substance listed
Conditions: Liquid, Vibrating tube method

COc1cc2c(cc1O)CC1c3c(cc(O)c(OC)c3-2)CCN1C (stereo not given) [boldine] + CCCO
Conditions | mass density [kg/m3]
352.94 K, 17000 kPa, x1 = 0.0142 | 793.21
352.94 K, 18000 kPa, x1 = 0.0018 | 773.13
352.94 K, 18000 kPa, x1 = 0.0112 | 789.5
352.94 K, 18000 kPa, x1 = 0.0142 | 794.1
352.94 K, 19000 kPa, x1 = 0.0018 | 774.01
352.94 K, 19000 kPa, x1 = 0.0112 | 790.38
352.94 K, 19000 kPa, x1 = 0.0142 | 794.97
352.94 K, 20000 kPa, x1 = 0.0018 | 774.9
352.94 K, 20000 kPa, x1 = 0.0112 | 791.19
352.94 K, 20000 kPa, x1 = 0.0142 | 795.82
352.95 K, 1000 kPa, x1 = 0.0046 | 762.42
352.95 K, 1000 kPa, x1 = 0.0077 | 766.39
352.95 K, 2000 kPa, x1 = 0.0046 | 763.47
352.95 K, 2000 kPa, x1 = 0.0077 | 767.42
352.95 K, 3000 kPa, x1 = 0.0046 | 764.53
352.95 K, 3000 kPa, x1 = 0.0077 | 768.43
352.95 K, 4000 kPa, x1 = 0.0046 | 765.57
352.95 K, 4000 kPa, x1 = 0.0077 | 769.48
352.95 K, 5000 kPa, x1 = 0.0046 | 766.6
352.95 K, 5000 kPa, x1 = 0.0077 | 770.53
352.95 K, 6000 kPa, x1 = 0.0046 | 767.63
352.95 K, 6000 kPa, x1 = 0.0077 | 771.55
352.95 K, 7000 kPa, x1 = 0.0046 | 768.64
352.95 K, 7000 kPa, x1 = 0.0077 | 772.55
352.95 K, 8000 kPa, x1 = 0.0046 | 769.68
352.95 K, 8000 kPa, x1 = 0.0077 | 773.58
352.95 K, 9000 kPa, x1 = 0.0046 | 770.67
352.95 K, 9000 kPa, x1 = 0.0077 | 774.57
352.95 K, 10000 kPa, x1 = 0.0046 | 771.67
352.95 K, 10000 kPa, x1 = 0.0077 | 775.56
352.95 K, 11000 kPa, x1 = 0.0046 | 772.65
352.95 K, 11000 kPa, x1 = 0.0077 | 776.53
352.95 K, 12000 kPa, x1 = 0.0046 | 773.64
352.95 K, 12000 kPa, x1 = 0.0077 | 777.51
352.95 K, 13000 kPa, x1 = 0.0046 | 774.6
352.95 K, 13000 kPa, x1 = 0.0077 | 778.48
352.95 K, 14000 kPa, x1 = 0.0046 | 775.56
352.95 K, 14000 kPa, x1 = 0.0077 | 779.42
352.95 K, 15000 kPa, x1 = 0.0046 | 776.52
352.95 K, 15000 kPa, x1 = 0.0077 | 780.35
352.95 K, 16000 kPa, x1 = 0.0046 | 777.42
352.95 K, 16000 kPa, x1 = 0.0077 | 781.26
352.95 K, 17000 kPa, x1 = 0.0046 | 778.33
352.95 K, 17000 kPa, x1 = 0.0077 | 782.19
352.95 K, 18000 kPa, x1 = 0.0046 | 779.23
352.95 K, 18000 kPa, x1 = 0.0077 | 783.07
352.95 K, 19000 kPa, x1 = 0.0046 | 780.13
352.95 K, 19000 kPa, x1 = 0.0077 | 783.97
352.95 K, 20000 kPa, x1 = 0.0046 | 780.98
352.95 K, 20000 kPa, x1 = 0.0077 | 784.83
362.91 K, 1000 kPa, x1 = 0.0142 | 768.06
362.91 K, 2000 kPa, x1 = 0.0142 | 769.19
362.91 K, 3000 kPa, x1 = 0.0142 | 770.27
362.91 K, 4000 kPa, x1 = 0.0142 | 771.41
362.91 K, 5000 kPa, x1 = 0.0142 | 772.43
362.91 K, 6000 kPa, x1 = 0.0142 | 773.54
362.91 K, 7000 kPa, x1 = 0.0142 | 774.62
362.91 K, 8000 kPa, x1 = 0.0142 | 775.73
362.91 K, 9000 kPa, x1 = 0.0142 | 776.73
362.91 K, 10000 kPa, x1 = 0.0142 | 777.77
362.91 K, 11000 kPa, x1 = 0.0142 | 778.78
362.91 K, 12000 kPa, x1 = 0.0142 | 779.82
362.91 K, 13000 kPa, x1 = 0.0142 | 780.81
362.91 K, 14000 kPa, x1 = 0.0142 | 781.79
362.91 K, 15000 kPa, x1 = 0.0142 | 782.77
362.91 K, 16000 kPa, x1 = 0.0142 | 783.72
362.91 K, 17000 kPa, x1 = 0.0142 | 784.68
362.91 K, 18000 kPa, x1 = 0.0142 | 785.6
362.91 K, 19000 kPa, x1 = 0.0142 | 786.52
362.91 K, 20000 kPa, x1 = 0.0142 | 787.4
362.92 K, 1000 kPa, x1 = 0.0046 | 752.84
362.92 K, 1000 kPa, x1 = 0.0077 | 756.81
362.92 K, 2000 kPa, x1 = 0.0046 | 753.97
362.92 K, 2000 kPa, x1 = 0.0077 | 757.93
362.92 K, 3000 kPa, x1 = 0.0046 | 755.11
